Test results taken from patent US10245261B2, “Substituted indol-5-ol derivatives and their therapeutic applications” (NantBioScience, Inc., priority 2013, dated 2019).

How the values were obtained:
Test in all cases: KinaseProfiler kinase assay
Type in all cases: biochemical
[1] = biological target: KDR(h) (Homo sapiens, UniProt P35968)
[2] = biological target: Abl(h) (Homo sapiens, UniProt P00519)
[3] = biological target: cSRC(h) (Homo sapiens, UniProt P12931)
Procedure: (§1) This example tests the inhibitory properties of representative compounds of the invention in c-Src kinase, Aurora-A kinase, Flt3 kinase, Ret kinase and TrkA Kinase assays (see, Daniele Fancelli et al, J. Med. Chem., 2006, 49 (24), pp 7247-7251). The KinaseProfiler™ Service Assay Protocols (Millipore) was used to test the kinase inhibiting activity of novel compounds from this invention. To do this, the buffer composition was as: 20 mM MOPS, 1 mM EDTA, 0.01% Brij-35, 5% Glycerol, 0.1% β-mercaptoethanol, 1 mg/mL BSA. Test compounds were initially dissolved in DMSO at the desired concentration, then serially diluted to the kinase assay buffer. In a final reaction volume of 25 μL, Aurora-A(h) (5-10 mU) is incubated with 8 mM MOPS pH 7.0, 0.2 mM EDTA, 200 μM LRRASLG (Kemptide), 10 mM MgAcetate and [γ^33P-ATP]. The reaction was initiated by the addition of the MgATP mix. After incubation for 40 minute at room temperature, the reaction was stopped by addition of 5 μL of a 3% phosphoric acid solution. 10 μL of the reaction was then spotted onto a P30 filtermat and washed three times for 5 minutes in 50 mM phosphoric acid and once in methanol prior to drying and scintillation counting. Wells containing substrate but no kinase and wells containing a phosphopeptide control were used to set 0% and 100% phosphorylation value, respectively.
(§2) The Kinase Hotspot℠ kinase assay was also used to test the compounds for IC50 or % inhibitions (Reaction Biology Corp.). Inhibitory IC50 values were determined by titration of compound at the optimal kinase concentration (Kinase EC50).

[4] = biological target: T1, Flt3(h) (Homo sapiens, UniProt P36888)
T1 sequence (P36888 27-993): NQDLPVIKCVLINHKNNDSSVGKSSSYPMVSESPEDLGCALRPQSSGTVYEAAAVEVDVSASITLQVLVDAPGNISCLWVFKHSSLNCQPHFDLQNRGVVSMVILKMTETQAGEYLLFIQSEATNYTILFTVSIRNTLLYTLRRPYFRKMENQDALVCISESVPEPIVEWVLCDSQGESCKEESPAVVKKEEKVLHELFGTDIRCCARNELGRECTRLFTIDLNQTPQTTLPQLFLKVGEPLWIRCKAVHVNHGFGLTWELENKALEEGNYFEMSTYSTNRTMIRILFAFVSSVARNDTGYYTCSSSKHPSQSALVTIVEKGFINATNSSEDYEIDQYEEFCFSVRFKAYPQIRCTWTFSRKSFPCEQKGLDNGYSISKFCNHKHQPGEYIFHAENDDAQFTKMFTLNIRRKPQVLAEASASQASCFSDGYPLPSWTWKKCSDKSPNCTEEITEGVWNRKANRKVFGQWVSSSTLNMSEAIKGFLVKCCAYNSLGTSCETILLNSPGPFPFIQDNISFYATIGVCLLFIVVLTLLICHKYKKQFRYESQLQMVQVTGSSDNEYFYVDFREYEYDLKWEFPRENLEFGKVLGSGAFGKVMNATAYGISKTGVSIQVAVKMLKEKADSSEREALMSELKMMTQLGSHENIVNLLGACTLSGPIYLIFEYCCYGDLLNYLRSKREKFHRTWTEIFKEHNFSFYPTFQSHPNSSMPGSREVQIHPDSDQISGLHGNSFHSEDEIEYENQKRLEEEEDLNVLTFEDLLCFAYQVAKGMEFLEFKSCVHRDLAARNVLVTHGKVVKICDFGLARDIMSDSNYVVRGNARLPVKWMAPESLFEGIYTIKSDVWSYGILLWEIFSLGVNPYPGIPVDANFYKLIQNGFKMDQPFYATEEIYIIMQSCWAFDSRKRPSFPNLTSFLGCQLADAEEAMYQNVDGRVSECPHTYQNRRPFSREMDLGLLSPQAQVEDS
Procedure: as §1, §2

[5] = biological target: Ret(h) (Homo sapiens, UniProt P07949)
Procedure: as §1, §2

[6] = biological target: T2, Aurora-A(h) (Homo sapiens, UniProt O14965); conditions: read-out: % Inhibition @1 μM Auroro-A
T2 sequence (O14965 1-403): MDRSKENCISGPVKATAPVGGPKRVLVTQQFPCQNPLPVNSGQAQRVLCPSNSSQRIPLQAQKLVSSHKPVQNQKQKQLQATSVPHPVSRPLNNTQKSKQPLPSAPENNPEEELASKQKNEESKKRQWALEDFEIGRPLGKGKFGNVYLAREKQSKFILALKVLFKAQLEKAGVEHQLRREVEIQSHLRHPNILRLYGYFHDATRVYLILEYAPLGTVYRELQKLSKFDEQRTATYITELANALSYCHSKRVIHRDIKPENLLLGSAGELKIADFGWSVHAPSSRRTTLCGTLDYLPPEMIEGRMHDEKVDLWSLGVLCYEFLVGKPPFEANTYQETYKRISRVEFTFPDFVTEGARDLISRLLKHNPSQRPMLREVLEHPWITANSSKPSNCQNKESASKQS
Procedure: as §1, §2

cSRC(h), sequence (P12931 whole entry): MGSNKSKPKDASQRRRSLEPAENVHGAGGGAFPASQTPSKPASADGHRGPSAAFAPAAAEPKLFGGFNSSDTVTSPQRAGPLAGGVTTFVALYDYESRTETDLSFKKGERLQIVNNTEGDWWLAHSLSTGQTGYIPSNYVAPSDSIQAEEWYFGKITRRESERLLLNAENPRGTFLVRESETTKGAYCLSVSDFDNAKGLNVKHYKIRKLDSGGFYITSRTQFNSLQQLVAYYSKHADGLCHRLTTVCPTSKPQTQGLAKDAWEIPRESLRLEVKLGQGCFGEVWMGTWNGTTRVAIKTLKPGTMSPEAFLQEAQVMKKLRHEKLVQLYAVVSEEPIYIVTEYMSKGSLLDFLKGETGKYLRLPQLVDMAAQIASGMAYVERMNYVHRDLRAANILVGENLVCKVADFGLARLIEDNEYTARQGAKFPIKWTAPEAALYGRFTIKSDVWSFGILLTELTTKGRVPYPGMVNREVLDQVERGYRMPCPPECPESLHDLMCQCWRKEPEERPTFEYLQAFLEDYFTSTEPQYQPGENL
Ret(h), sequence (P07949 29-1114): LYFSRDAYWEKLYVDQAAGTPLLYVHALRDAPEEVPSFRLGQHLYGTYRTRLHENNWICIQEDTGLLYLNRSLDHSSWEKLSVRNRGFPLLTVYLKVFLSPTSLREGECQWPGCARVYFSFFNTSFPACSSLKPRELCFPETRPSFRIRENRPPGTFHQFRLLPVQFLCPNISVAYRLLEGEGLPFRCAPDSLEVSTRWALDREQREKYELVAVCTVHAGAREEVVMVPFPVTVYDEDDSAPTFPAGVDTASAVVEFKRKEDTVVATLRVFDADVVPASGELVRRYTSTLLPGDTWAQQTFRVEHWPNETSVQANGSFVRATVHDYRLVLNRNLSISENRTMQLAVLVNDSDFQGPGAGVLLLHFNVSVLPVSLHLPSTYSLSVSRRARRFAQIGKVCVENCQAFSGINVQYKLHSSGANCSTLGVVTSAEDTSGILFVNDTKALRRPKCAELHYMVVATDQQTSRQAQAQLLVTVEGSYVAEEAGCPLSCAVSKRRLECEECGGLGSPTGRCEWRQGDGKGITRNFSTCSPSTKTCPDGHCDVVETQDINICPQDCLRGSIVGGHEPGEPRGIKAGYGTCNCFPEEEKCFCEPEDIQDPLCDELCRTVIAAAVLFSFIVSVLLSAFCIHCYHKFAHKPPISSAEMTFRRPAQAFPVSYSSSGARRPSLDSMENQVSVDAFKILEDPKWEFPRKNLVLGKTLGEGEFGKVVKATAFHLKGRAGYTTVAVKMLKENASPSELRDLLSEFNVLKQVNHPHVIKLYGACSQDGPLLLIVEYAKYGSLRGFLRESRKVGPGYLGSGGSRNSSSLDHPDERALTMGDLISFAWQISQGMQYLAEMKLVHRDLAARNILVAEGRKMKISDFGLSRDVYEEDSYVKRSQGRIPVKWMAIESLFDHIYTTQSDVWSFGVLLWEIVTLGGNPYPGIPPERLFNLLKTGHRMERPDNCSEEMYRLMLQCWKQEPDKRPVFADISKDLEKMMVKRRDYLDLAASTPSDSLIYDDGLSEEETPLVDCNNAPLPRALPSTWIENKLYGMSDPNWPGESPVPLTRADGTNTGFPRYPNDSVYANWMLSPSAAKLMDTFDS
Abl(h), sequence (P00519 whole entry): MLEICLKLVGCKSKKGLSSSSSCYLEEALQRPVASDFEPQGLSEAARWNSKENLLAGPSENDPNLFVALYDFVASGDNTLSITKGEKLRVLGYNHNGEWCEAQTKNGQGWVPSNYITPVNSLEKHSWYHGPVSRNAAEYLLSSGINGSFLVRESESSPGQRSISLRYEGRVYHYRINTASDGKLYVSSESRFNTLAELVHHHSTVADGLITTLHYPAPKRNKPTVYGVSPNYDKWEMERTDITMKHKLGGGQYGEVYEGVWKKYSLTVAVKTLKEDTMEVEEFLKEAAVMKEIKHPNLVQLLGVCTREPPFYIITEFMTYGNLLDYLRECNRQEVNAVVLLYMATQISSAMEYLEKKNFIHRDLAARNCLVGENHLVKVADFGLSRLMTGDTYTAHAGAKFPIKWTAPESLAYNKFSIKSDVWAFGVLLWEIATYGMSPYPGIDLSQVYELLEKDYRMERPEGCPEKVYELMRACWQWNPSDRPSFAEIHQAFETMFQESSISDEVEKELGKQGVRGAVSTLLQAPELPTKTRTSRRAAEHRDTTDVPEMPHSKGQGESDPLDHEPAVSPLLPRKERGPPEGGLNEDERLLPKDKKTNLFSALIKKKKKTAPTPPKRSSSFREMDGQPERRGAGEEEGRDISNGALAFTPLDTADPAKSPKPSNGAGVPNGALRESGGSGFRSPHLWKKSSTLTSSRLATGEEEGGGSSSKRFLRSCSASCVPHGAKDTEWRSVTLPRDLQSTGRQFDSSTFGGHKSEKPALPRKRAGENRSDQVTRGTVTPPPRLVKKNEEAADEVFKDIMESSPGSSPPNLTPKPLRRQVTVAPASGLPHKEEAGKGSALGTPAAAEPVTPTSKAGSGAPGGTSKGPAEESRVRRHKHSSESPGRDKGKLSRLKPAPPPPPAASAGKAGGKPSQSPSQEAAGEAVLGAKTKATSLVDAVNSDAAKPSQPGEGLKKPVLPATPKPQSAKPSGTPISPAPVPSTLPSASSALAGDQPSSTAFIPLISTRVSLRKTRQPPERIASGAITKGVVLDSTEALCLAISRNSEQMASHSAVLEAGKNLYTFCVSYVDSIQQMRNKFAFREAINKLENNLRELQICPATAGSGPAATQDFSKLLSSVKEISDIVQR
KDR(h), sequence (P35968 20-1356): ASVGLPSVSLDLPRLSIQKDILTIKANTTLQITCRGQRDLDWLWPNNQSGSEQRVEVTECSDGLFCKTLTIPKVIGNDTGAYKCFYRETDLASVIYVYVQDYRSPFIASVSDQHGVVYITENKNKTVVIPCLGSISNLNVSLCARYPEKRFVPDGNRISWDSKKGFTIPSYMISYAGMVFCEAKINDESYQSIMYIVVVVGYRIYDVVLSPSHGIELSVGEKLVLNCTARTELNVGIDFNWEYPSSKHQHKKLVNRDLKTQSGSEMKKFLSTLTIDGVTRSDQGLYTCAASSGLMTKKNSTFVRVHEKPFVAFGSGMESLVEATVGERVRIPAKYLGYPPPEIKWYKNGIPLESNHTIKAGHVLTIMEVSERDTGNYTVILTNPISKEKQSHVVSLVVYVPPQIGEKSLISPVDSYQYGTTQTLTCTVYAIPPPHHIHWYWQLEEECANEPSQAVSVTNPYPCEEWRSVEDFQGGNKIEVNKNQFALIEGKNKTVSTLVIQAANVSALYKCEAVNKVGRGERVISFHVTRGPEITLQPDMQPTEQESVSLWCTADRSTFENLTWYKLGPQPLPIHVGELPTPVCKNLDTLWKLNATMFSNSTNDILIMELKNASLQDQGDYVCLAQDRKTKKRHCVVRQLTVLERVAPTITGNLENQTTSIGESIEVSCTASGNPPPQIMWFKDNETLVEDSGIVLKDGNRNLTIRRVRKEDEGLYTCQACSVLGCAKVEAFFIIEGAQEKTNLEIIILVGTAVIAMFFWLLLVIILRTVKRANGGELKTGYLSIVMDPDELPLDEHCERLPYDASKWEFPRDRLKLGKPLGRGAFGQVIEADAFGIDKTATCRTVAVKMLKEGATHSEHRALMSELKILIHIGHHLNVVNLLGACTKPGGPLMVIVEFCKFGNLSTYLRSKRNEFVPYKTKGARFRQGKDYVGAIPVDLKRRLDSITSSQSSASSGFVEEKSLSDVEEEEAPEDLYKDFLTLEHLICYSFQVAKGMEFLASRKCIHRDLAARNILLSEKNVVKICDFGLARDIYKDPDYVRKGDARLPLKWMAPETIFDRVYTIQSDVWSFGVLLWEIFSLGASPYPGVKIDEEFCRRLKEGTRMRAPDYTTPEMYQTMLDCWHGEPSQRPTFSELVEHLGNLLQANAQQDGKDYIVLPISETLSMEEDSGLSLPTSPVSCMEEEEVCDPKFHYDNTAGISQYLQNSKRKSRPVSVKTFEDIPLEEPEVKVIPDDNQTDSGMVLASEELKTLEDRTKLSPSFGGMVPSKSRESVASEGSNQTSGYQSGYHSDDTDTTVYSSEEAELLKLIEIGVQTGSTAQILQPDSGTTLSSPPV

SMILES | inhibition at 1 µM [1] [%] | inhibition at 1 µM [2] [%] | inhibition at 1 µM [3] [%] | inhibition at 1 µM [4] [%] | inhibition at 1 µM [5] [%] | inhibition at 1 µM [6] [%]
Cc1cc2c(F)c(Oc3nc(Nc4cc(C5CC5)[nH]n4)cc(N4CC(O)C4)n3)ccc2[nH]1 [Compound 15] | 91 | 108 | 99 | 100 | 101 | 101
COC1CCN(c2cc(Nc3cc(C4CC4)[nH]n3)nc(Oc3ccc4[nH]c(C)cc4c3F)n2)C1 (stereo not drawn) [Compound 16] | 92 | 103 | 100 | 98 | 101 | 101
CC(=O)N1CCN(c2cc(Nc3cc(C4CC4)[nH]n3)nc(Oc3ccc4[nH]c(C)cc4c3F)n2)CC1 [Compound 18] | 93 | 107 | 99 | 100 | 97 | 100
Cc1cc2c(F)c(Oc3nc(Nc4cc(C5CC5)[nH]n4)cc(N4CCNC(=O)C4)n3)ccc2[nH]1 [Compound 19] | 93 | 108 | 99 | 99 | 100 | 100
Cc1cc2c(F)c(Oc3nc(Nc4cc(C5CC5)[nH]n4)cc(N4C[C@@H](C)N[C@@H](C)C4)n3)ccc2[nH]1 [Compound 20] | 93 | 107 | 99 | 100 | 100 | 99
Cc1cc2c(F)c(Oc3nc(Nc4cc(C5CC5)[nH]n4)cc(N4CCN(c5cccnc5)CC4)n3)ccc2[nH]1 [Compound 26] | 93 | 109 | 100 | 100 | 101 | 101
COCCN1CCN(c2cc(Nc3cc(C4CC4)[nH]n3)nc(Oc3ccc4[nH]c(C)cc4c3F)n2)CC1 [Compound 28] | 89 | 108 | 96 | 100 | 101 | 101
Cc1cc2c(F)c(Oc3nc(Nc4cc(C5CC5)[nH]n4)cc(N4CCOC(CN(C)C)C4)n3)ccc2[nH]1 (stereo not drawn) [Compound 30] | 94 | 110 | 99 | 100 | 101 | 100
CCN1CCN(c2cc(Nc3cc(C4CC4)[nH]n3)nc(Oc3ccc4[nH]c(C)cc4c3F)n2)CC1 [Compound 31] | 91 | 115 | 104 | 101 | 102 | 101
Cc1cc2c(F)c(Oc3nc(Nc4cc(C5CC5)[nH]n4)cc(N4CCN(CC(F)(F)F)CC4)n3)ccc2[nH]1 [Compound 38] | 95 | 108 | 98 | 98 | 101 | 80
Cc1cc2c(F)c(Oc3nc(Nc4cc(C5CC5)[nH]n4)cc(N4CCOC(CN)C4)n3)ccc2[nH]1 (stereo not drawn) [Compound 39] | 95 | 110 | 97 | 98 | 101 | 98
CCC1CN(c2cc(Nc3cc(C4CC4)[nH]n3)nc(Oc3ccc4[nH]c(C)cc4c3F)n2)CCN1 (stereo not drawn) [Compound 41] | 94 | 108 | 97 | 99 | 101 | 87

Second part, the molecule after the results:

inhibition at 1 µM [1] [%] | inhibition at 1 µM [2] [%] | inhibition at 1 µM [3] [%] | inhibition at 1 µM [4] [%] | inhibition at 1 µM [5] [%] | inhibition at 1 µM [6] [%] | SMILES
96 | 112 | 100 | 101 | 100 | 100 | Cc1cc2c(F)c(Oc3nc(Nc4cc(C5CC5)[nH]n4)cc(N4CCOCC4)n3)ccc2[nH]1 [Compound 13]
93 | 108 | 98 | 100 | 98 | 100 | Cc1cc2c(F)c(Oc3nc(Nc4cc(C5CC5)[nH]n4)cc(N4CCC(N(C)C)C4)n3)ccc2[nH]1 (stereo not drawn) [Compound 17]
87 | 107 | 98 | 101 | 100 | 100 | Cc1cc2c(F)c(Oc3nc(Nc4cc(C5CC5)[nH]n4)cc(N4CCC(O)CC4)n3)ccc2[nH]1 [Compound 21]
92 | 108 | 100 | 100 | 101 | 101 | Cc1cc2c(F)c(Oc3nc(Nc4cc(C5CC5)[nH]n4)cc(N4CCC(F)CC4)n3)ccc2[nH]1 [Compound 22]
93 | 108 | 100 | 100 | 100 | 101 | Cc1cc2c(F)c(Oc3nc(Nc4cc(C5CC5)[nH]n4)cc(N4CCN(S(C)(=O)=O)CC4)n3)ccc2[nH]1 [Compound 23]
93 | 108 | 100 | 100 | 101 | 101 | Cc1cc2c(F)c(Oc3nc(Nc4cc(C5CC5)[nH]n4)cc(N4CCN(c5ccccn5)CC4)n3)ccc2[nH]1 [Compound 25]
92 | 108 | 99 | 100 | 101 | 101 | Cc1cc2c(F)c(Oc3nc(Nc4cc(C5CC5)[nH]n4)cc(N4CCN(c5ccncc5)CC4)n3)ccc2[nH]1 [Compound 27]
96 | 110 | 101 | 100 | 102 | 93 | Cc1cc2c(F)c(Oc3nc(Nc4cc(C5CC5)[nH]n4)cc(N4CCN(CCN(C)C)CC4)n3)ccc2[nH]1 [Compound 42]
95 | 111 | 101 | 99 | 102 | 87 | Cc1cc2c(F)c(Oc3nc(Nc4cc(C5CC5)[nH]n4)cc(N4CCNC(CO)C4)n3)ccc2[nH]1 (stereo not drawn) [Compound 43]
